pIC50: −log10 of the molar value.

The assay deals with T1, Tyrosinase (Agaricus bisporus, UniProt O42713).
T1 sequence (O42713 whole entry): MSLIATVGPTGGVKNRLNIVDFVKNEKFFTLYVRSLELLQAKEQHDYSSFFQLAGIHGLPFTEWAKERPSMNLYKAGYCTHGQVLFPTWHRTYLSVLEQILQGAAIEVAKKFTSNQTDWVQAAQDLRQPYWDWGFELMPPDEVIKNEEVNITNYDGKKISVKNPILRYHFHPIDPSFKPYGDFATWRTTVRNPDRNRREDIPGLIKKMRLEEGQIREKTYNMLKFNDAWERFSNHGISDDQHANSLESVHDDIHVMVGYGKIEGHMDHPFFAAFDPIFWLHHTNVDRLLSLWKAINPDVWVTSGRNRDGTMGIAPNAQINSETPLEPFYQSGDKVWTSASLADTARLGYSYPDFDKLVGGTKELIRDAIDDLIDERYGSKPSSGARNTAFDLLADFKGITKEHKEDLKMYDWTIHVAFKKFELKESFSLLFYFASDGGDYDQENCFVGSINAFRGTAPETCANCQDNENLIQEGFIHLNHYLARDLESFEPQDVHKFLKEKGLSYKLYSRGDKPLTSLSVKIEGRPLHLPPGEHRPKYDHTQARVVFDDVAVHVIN
Description: Inhibition of mushroom tyrosinase using L-DOPA as substrate after 10 mins.
As usually defined, the pIC50 is the IC50 on a negative log10 scale, so that one unit is a factor of ten. A higher pIC50 goes with a low IC50. In turn, `Oc1ccc(CCc2ccccc2Cl)c(O)c1` showed a pIC50 of 4.47.

`Oc1ccc(CCc2ccc(O)cc2O)cc1` had a pIC50 of 5.07.

`Oc1ccc(CCc2ccccc2)c(O)c1` had a pIC50 of 4.51.

In the case of `COc1ccc(CCc2ccc(O)cc2O)cc1`, the pIC50 was 4.50.

`Oc1ccc(CCc2ccc(F)cc2)c(O)c1` had a pIC50 of 4.30.

For the origin of these results see ChEMBL document CHEMBL2203088, “Design, synthesis and molecular simulation studies of dihydrostilbene derivatives as potent tyrosinase inhibitors” (Bioorg Med Chem Lett, 2012).
